Test results reported in US20130137701A1, “COMBINATION” (priority 2010, published 2013).
Like-named read-outs stand apart in the source and are kept apart here.

How the values were obtained:
[1] = tested on: BT-474; assay: Cell growth inhibition assay (Cell Titer Glo); assay type: cell-based, Human; conditions: BT-474, Breast, HER2+, PIK3CA K111N, 3 days, read-out: Single Agent (IC50)
Protocol: (§1) All cells were cultured without lapatinib for a minimum of 72 hours prior to cell plating. Cells were assayed in a 96-well tissue culture plate (NUNC 136102) of RPMI medium containing 10
(§2) % FBS for all cells at 2,000 cells per well except KPL4, which were plated in DMEM containing 5% FBS at 500 cells per well. […] Cells were incubated in the presence of compounds for 3 days. ATP levels were determined by adding Cell Titer Glo® (Promega) according to the manufacturer's protocol. Briefly, Cell Titer Glo® was added each plate, incubated for 20 minutes then luminescent signal was read on the SpectraMax L plate reader with a 0.5 sec integration time.
(§3) Inhibition of cell growth was estimated after treatment with compound or combination of compounds for three days and comparing the signal to cells treated with vehicle (DMSO). Cell growth was calculated relative to vehicle (DMSO) treated control wells. Concentration of compound that inhibits 50% of control cell growth (IC50) was interpolated using nonlinear regression with the equation, y=(A+(B−A)/(1+(C/x)̂D)))), where A is the minimum response (ymin), B is the maximum response (ymax), C is the inflection point of the curve (EC50) and D is the Hill coefficient. […]

[2] = tested on: CHL-1; assay: Cell growth inhibition assay (Cell Titer Glo); assay type: cell-based, Human; conditions: CHL-1, Melanoma, HER−, PIK3CA WT, 3 days, read-out: Single Agent (IC50)
Protocol: as §1, §2, §3

[3] = tested on: HCC202; assay: Cell growth inhibition assay (Cell Titer Glo); assay type: cell-based, Human; conditions: HCC202, Breast, HER2+, PIK3CA E545K, 3 days; for IC50: read-out: Single Agent (IC50)
Protocol: as §1, §2, §3

[4] = tested on: KPL4; assay: Cell growth inhibition assay (Cell Titer Glo); assay type: cell-based, Human; conditions: KPL4, Breast, HER2+, PIK3CA H1047R, 3 days, read-out: Single Agent (IC50)
Protocol: as §1, §2, §3

[5] = tested on: MDA-MB-361; assay: Cell growth inhibition assay (Cell Titer Glo); assay type: cell-based, Human; conditions: MDA-MB-361 (resistant line), Breast, HER2+, PIK3CA E545K, 3 days; for IC50: Homo sapiens, 72 h, read-out: Single Agent (IC50)
Protocol: as §1, §2, §3

[6] = tested on: MDA-MB-453; assay: Cell growth inhibition assay (Cell Titer Glo); assay type: cell-based, Human; conditions: MDA-MB-453, Breast, HER2+, PIK3CA H1047R, 3 days; for IC50: Homo sapiens, 72 h, read-out: Single Agent (IC50)
Protocol: as §1, §2, §3

[7] = tested on: UACC893; assay: Cell growth inhibition assay (Cell Titer Glo); assay type: cell-based, Human; conditions: UACC893, Breast, HER2+, PIK3CA H1047R, 3 days, read-out: Single Agent (IC50)
Protocol: as §1, §2, §3

[8] = tested on: ZR-75-1; assay: Cell growth inhibition assay (Cell Titer Glo); assay type: cell-based, Human; conditions: ZR-75-1, Breast, HER−, PIK3CA WT, 3 days, read-out: Single Agent (IC50)
Protocol: as §1, §2, §3

[9] = tested on: SK-BR-3-W13; assay: Cell growth inhibition assay (Cell Titer Glo); assay type: cell-based; conditions: Homo sapiens, 72 h; SK-BR-3-W13 (resistant line), Breast, HER2+, PIK3CA WT; 3 days; read-out: Single Agent (IC50)
Protocol: (§4) JIMT-1 is a line derived from a patient clinically resistant to trastuzumab (Herceptin®). SK-BR-3-W13 is a single cell clone isolated by a cloning cylinder after a single treatment of SK-BR-3 cells with 0.5 μM lapatinib. BT-474-J4 is a single cell clone derived from a culture of BT-474 cells that were selected to grow in lapatinib to a concentration of 3 μM.
as §1, §2, §3

[10] = tested on: JIMT-1; assay: Cell growth inhibition assay (Cell Titer Glo); assay type: cell-based, Human; conditions: JIMT-1 (resistant line), Breast, HER2+, PIK3CA WT, 3 days, read-out: Single Agent (IC50)
Protocol: as §4, §1, §2, §3

[11] = tested on: caspase 3/7 activity in BT474 cells; assay: Cell apoptosis assay, caspase-3/7 activation (Caspase Glo 3/7); assay type: cell-based, Human; conditions: 24 h post treatment
Protocol: as §4
(§5) For investigation of the induction of apoptosis, cells were plated at 5,000 cells per well in a 96-well tissue culture plate and allowed to attach for approximately 24 hours. Cells were then treated with compounds as described above. 24 hours after compound treatment, the levels of active caspase 3 and caspase 7 were determined with the Caspase Glo™ 3/7 (Promega, cat G8093) according to the instructions provided by the manufacturer. 48 hours after treatment with compound, levels of apoptosis were estimated using the Roche Cell Death ELISA (Cat. No. 11 774 425 001) following the instructions provided by the manufacturer.

[12] = tested on: caspase 3/7 activity in HCC1419 cells; assay: as above; assay type: cell-based, Human; conditions: 24 h post treatment
Protocol: as §4, §5

[13] = tested on: caspase 3/7 activity in UACC893 cells; assay: as above; assay type: cell-based, Human; conditions: 24 h post treatment
Protocol: as §4, §5

[14] = tested on: HCC1937; assay: Cell growth inhibition assay (Cell Titer Glo); assay type: cell-based, Human; conditions: HCC1937, Breast, HER−, PIK3CA WT; 3 days; read-out: Single Agent (IC50)
Protocol: as §1, §2, §3

[15] = tested on: MDA-MB-175-VII; assay: Cell growth inhibition assay (Cell Titer Glo); assay type: cell-based, Human; conditions: Breast, HER−, PIK3CA WT, 3 days, read-out: Single Agent (IC50)
Protocol: as §1, §2, §3

[16] = tested on: SK-BR-3; assay: Cell growth inhibition assay (Cell Titer Glo); assay type: cell-based, Human; conditions: SK-BR-3, Breast, HER2+, PIK3CA WT, 3 days, read-out: Single Agent (IC50)
Protocol: as §1, §2, §3

[17] = tested on: BT-474-J4; assay: Cell growth inhibition assay (Cell Titer Glo); assay type: cell-based; conditions: Homo sapiens, 72 h, BT-474-J4 (resistant line), Breast, HER2+, PIK3CA K111N; 3 days; read-out: Single Agent (IC50)
Protocol: as §4, §1, §2, §3

COc1ncc(-c2ccc3nccc(-c4ccnnc4)c3c2)cc1NS(=O)(=O)c1ccc(F)cc1F [Compound B, 2,4-difluoro-N-{2-(methyloxy)-5-[4-(4-pyridazinyl)-6-quinolinyl]-3-pyridinyl}benzenesulfonamide]
IC50 [1]: 28 nM | IC50 ([1]; Homo sapiens, BT-474, 72 h): < 50 nM | IC50 [2]: 38 nM | IC50 ([2]; Homo sapiens, CHL-1, 72 h): < 40 nM | IC50 [3]: 206 nM | IC50 ([3]; Homo sapiens, HCC202, 72 h): 200 nM | IC50 ([4]; Homo sapiens, KPL4, 72 h): < 5 nM | IC50 [4]: 3 nM | IC50 [5]: 9 nM | IC50 [6]: 15 nM | IC50 ([7]; Homo sapiens, UACC-893, 72 h): < 5 nM | IC50 [7]: 5 nM | IC50 ([8]; Homo sapiens, ZR-75-1, 72 h): 10 to 1300 nM | IC50 [8]: 12 nM | IC50 [9]: 167 nM | IC50 ([10]; Homo sapiens, JIMT-1, 72 h): < 30 nM | IC50 [10]: 28 nM | caspase 3/7 activity [11]: increased caspase 3/7 activity | caspase 3/7 activity [12]: slight increase in caspase 3/7 activity | caspase 3/7 activity [13]: increased caspase 3/7 activity

CS(=O)(=O)CCNCc1ccc(-c2ccc3ncnc(Nc4ccc(OCc5cccc(F)c5)c(Cl)c4)c3c2)o1 [Compound A, N-{3-Chloro-4-[(3-fluorobenzyl)oxy]phenyl}-6-[5-({[2-(methanesulphonyl)ethyl]amino}methyl)-2-furyl]-4-quinazolinamine ditosylate monohydrate]
IC50 ([1]; ditosylate monohydrate): 241 nM | IC50 ([1]; Homo sapiens, BT-474, 72 h): < 200 nM | IC50 [14]: > 1000 nM | Single Agent (IC50, μM) [3]: less sensitive | IC50 ([3]; Homo sapiens, HCC202, 72 h): 4630 nM | IC50 ([15]; ditosylate monohydrate): 106 nM | IC50 ([15]; Homo sapiens, 72 h): < 200 nM | IC50 [5]: > 10000 nM | Single Agent (IC50, μM) [5]: less sensitive | IC50 [6]: 2470 nM | Single Agent (IC50, μM) [6]: less sensitive | IC50 ([16]; Homo sapiens, SK-BR-3, 72 h): < 200 nM | IC50 ([16]; ditosylate monohydrate): 312 nM | IC50 ([7]; Homo sapiens, UACC-893, 72 h): < 1000 nM | IC50 ([7]; ditosylate monohydrate): 1070 nM | IC50 [17]: 3540 nM | IC50 [9]: 7110 nM | IC50 ([10]; Homo sapiens, JIMT-1, 72 h): 9620 nM | caspase 3/7 activity [11]: increased caspase 3/7 activity | caspase 3/7 activity [12]: slight increase in caspase 3/7 activity | caspase 3/7 activity [13]: increased caspase 3/7 activity
